One test deals with T1, human S1P1 receptor (Homo sapiens, UniProt P21453).
T1 construct: expressed in transfected cells; membranes used
In words: GTP γ35S binding assay, S1P1 activity. Type of test: biochemical. Conditions: membranes of cells stably expressing S1P1 receptor, agonist potency. On the procedure:
Compounds were synthesized and tested for S1P1 activity using the GTP γ^35S binding assay. These compounds may be assessed for their ability to activate or block activation of the human S1P1 receptor in cells stably expressing the S1P1 receptor.
GTP γ^35S binding was measured in the medium containing (mM) HEPES 25, pH 7.4, MgCl2 10, NaCl 100, dithitothreitol 0.5, digitonin 0.003%, 0.2 nM GTP γ^35S, and 5 μg membrane protein in a volume of 150 μl. Test compounds were included in the concentration range from 0.08 to 5,000 nM unless indicated otherwise. Membranes were incubated with 100 μM 5′-adenylylimmidodiphosphate for 30 min, and subsequently with 10 μM GDP for 10 min on ice. Drug solutions and membrane were mixed, and then reactions were initiated by adding GTP γ^35S and continued for 30 min at 25° C. Reaction mixtures were filtered over Whatman GF/B filters under vacuum, and washed three times with 3 mL of ice-cold buffer (HEPES 25, pH 7.4, MgCl2 10 and NaCl 100). Filters were dried and mixed with scintillant, and counted for ^35S activity using a β-counter. Agonist-induced GTP γ^35S binding was obtained by subtracting that in the absence of agonist. Binding data were analyzed using a non-linear regression method. In case of antagonist assay, the reaction mixture contained 10 nM […] in the presence of test antagonist at concentrations ranging from 0.08 to 5000 nM.
For orientation: GTPγS is a poorly hydrolysed GTP analogue; its binding reports G protein activation.

In another test the test system is lymphocytes in the blood. In words: Lymphopenia assay in mice. Type of test: in vivo. To be noted: female C57BL6 mice, 10 mg/Kg subcutaneously, after 96 h of drug application (FIG. 1). As to the method:
Lymphopenia Assay in Mice
Compound 1, 5-{3-[3-chloro-4-(2,3-dihydroxypropoxy)phenyl]-1,2,4-oxadiazol-5-yl}-2-isopropoxybenzonitrile, was prepared in a solution containing 3% (w/v) 2-hydroxy propyl β-cyclodextrin (HPBCD) and 1% DMSO to a final concentration of 1 mg/ml, and subcutaneously injected to female C57BL6 mice (CHARLES RIVERS) weighing 20-25 g at the dose of 10 mg/Kg. Blood samples were obtained by puncturing the submandibular skin with a Goldenrod animal lancet at 24, 48, 72, and 96 hrs post drug application. Blood was collected into microvettes (SARSTEDT) containing EDTA tripotassium salt. Lymphocytes in blood samples were counted using a HEMAVET Multispecies Hematology System, HEMAVET HV950FS (Drew Scientific Inc.). (Hale, J. et al Bioorg. & Med. Chem. Lett. 14 (2004) 3351).The results are presented in FIG. 1: the number of lymphocytes in the blood was reduced by Compound 1 after 96 h of drug application.

A word on the EC50: it is the midpoint of the concentration-response curve. Low readings indicate a more potent agent, high ones a less potent agent.

Each structure is given as a SMILES string.

T1 sequence (P21453 whole entry): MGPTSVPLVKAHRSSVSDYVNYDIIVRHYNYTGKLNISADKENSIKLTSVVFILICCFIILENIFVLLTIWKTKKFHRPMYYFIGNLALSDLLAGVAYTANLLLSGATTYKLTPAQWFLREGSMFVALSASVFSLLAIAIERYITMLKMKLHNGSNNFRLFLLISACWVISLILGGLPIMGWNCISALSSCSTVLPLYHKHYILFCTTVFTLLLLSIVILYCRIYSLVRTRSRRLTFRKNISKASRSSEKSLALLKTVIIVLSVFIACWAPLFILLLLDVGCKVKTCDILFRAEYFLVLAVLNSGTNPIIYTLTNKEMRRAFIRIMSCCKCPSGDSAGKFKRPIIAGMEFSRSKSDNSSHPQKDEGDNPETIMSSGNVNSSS

Molecule `CC(C)Oc1ccc(-c2nc(-c3ccc(OCC(O)CO)c(Cl)c3)no2)cc1C#N` (centres unmarked) [Compound 1, 5-{3-[3-chloro-4-(2,3-dihydroxypropoxy)phenyl]-1,2,4-oxadiazol-5-yl}-2-isopropoxybenzonitrile] showed an EC50 at human S1P1 receptor of 10.3 nM. The “number of lymphocytes in the blood” value with lymphocytes in the blood is “reduced”.
Molecule `COP(=O)(O)OCC(O)COc1ccc(-c2noc(-c3ccc(OC(C)C)c(C#N)c3)n2)cc1Cl` (centres unmarked) [Compound 3, 3-{2-chloro-4-[5-(3-cyano-4-isopropoxyphenyl)-1,2,4-oxadiazol-3-yl]phenoxy}-2-hydroxypropyl methyl hydrogen phosphate] showed an EC50 at human S1P1 receptor of 20.4 nM.
For the molecule `CC(C)Oc1ccc(-c2nc(-c3ccc(OCC(O)COP(=O)(O)O)c(Cl)c3)no2)cc1C#N` (centres unmarked) [Compound 4, 3-{2-chloro-4-[5-(3-cyano-4-isopropoxyphenyl)-1,2,4-oxadiazol-3-yl]phenoxy}-2-hydroxypropyl dihydrogen phosphate], the EC50 on human S1P1 receptor is 4580 nM.
`COP(=O)(OC)OCC(O)COc1ccc(-c2noc(-c3ccc(OC(C)C)c(C#N)c3)n2)cc1Cl` (centres unmarked) [Compound 2, 3-{2-chloro-4-[5-(3-cyano-4-isopropoxyphenyl)-1,2,4-oxadiazol-3-yl]phenoxy}-2-hydroxypropyl dimethyl phosphate]: the EC50 at human S1P1 receptor was found to be 2.88 nM.
